Results as given in patent US20220304302A1, “MUCILAGE BASED PLANT PROTECTION PRODUCT AND METHOD THEREOF” (BOTANOHEALTH LTD., priority 2019, published 2022).

System: Powdery mildew
Assay: Powdery mildew on whole Bell pepper plants
Format: in vivo
Conditions: 1000 spores, evaluated every 24 hours for 3 days
Method: Bell pepper plants where obtained at 4 weeks, replanted and acclimatized (22-28° C., 16 hour light). • ii. Plants where divided between treated plants: present formulation/active agent (thyme oil 0.1%)+Soap, negative control plants (no active fungicide) and a positive control (Penconazole, Ophir 2000). The plants were treated on 4 leafs, at 6 places on each leaf, with a solution containing 1000 spores. Infected plants were preserved in a moist environment. • iii. Fungi infestation was evaluated every 24 hours for 3 days: • i. Treated: 55% of leafs where infected; • ii. Negative control: 97.5 of leafs where infected • iii. Positive control: 40% of leafs where infected

CCCC(Cn1cncn1)c1ccc(Cl)cc1Cl (stereo not shown) [Penconazole]
leafs infected: 40%
